In patent US9353107B2 (Aurigene Discovery Technologies Limited, priority 2012, dated 2016):
Where a name gives a salt, the structure may show the parent alone.

Target: T1, recombinant human ALK enzyme (ALK WT) (Homo sapiens, UniProt Q9UM73)
T1 construct: purchased Carna Biosciences 08-518
Assay: ALK WT cell free enzymatic assay (TR-FRET)
Format: biochemical
Details: 1 μM ATP; for IC50: 10 point dose response; for inhibition at 0.1 µM: compound at 100 nM; for inhibition at 0.1 µM / inhibition at 1 µM: 30 min pre-incubation; for inhibition at 1 µM: compound at 1 μM
Outline: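 Recombinant human ALK with 40 nM Ultra Light Poly GT, 1 μM ATP and Eu anti-phosphotyrosine antibody, 1% DMSO, pH 7.1 HEPES; 30 min enzyme-compound pre-incubation, then 30 min reaction. TR-FRET 665/615 ratio; percent inhibition at 100 nM and 1 μM, IC50 from 10-point sigmoidal fit.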

T1 sequence (Q9UM73 1058-1620 limits assumed): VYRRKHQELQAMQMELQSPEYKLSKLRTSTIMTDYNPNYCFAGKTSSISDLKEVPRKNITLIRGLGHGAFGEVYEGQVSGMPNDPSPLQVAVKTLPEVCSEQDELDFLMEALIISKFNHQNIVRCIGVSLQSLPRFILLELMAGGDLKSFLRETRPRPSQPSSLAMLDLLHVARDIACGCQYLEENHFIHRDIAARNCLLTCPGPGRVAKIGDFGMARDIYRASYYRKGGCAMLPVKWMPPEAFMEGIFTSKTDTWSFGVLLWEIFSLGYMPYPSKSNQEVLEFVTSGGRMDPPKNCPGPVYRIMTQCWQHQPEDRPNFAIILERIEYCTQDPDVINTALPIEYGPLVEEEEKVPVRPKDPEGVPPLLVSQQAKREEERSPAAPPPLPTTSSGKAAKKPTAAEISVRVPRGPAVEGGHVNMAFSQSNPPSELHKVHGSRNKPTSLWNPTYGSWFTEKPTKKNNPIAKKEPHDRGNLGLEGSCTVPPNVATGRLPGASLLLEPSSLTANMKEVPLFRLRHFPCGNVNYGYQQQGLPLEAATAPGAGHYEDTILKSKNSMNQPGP

SMILES | IC50 [nM] | inhibition at 0.1 µM [%] | inhibition at 1 µM [%]
CC(=O)N1CCN(c2ccc(-c3cnc4[nH]cc(-c5c(C)nn(Cc6cccc(F)c6)c5C)c4c3)cc2)CC1 [Example 49, 1-(4-(4-(3-(1-(3-fluorobenzyl)-3,5-dimethyl-1H-pyrazol-4-yl)-1H-pyrrolo[2,3-b]pyridin-5-yl)phenyl)piperazin-1-yl)ethanone] | < 50 | 70 | 91
COc1cc(-c2cnc3[nH]cc(-c4cnn(Cc5cccc(F)c5)c4)c3c2)cnc1N1CCNCC1 [Example 174, 3-(1-(3-fluorobenzyl)-1H-pyrazol-4-yl)-5-(5-methoxy-6-(piperazin-1-yl)pyridin-3-yl)-1H-pyrrolo[2,3-b]pyridine] | < 50 | 96 | 100
COc1cc(-c2cnc3[nH]cc(-c4cnn(Cc5cc(F)cc(F)c5)c4)c3c2)ccc1NS(C)(=O)=O [Example 73, N-(4-(3-(1-(3,5-difluorobenzyl)-1H-pyrazol-4-yl)-1H-pyrrolo[2,3-b]pyridin-5-yl)-2-methoxyphenyl)methanesulfonamide] | < 50 | 92 | 97
COc1ccc(-c2cnc3[nH]cc(-c4cnn(Cc5cc(F)cc(F)c5)c4)c3c2)cc1NS(C)(=O)=O [Example 71, N-(5-(3-(1-(3,5-difluorobenzyl)-1H-pyrazol-4-yl)-1H-pyrrolo[2,3-b]pyridin-5-yl)-2-methoxyphenyl)methanesulfonamide] | < 50 | 94 | 100
O=C(C1CC1)N1CCN(c2ccc(-c3cnc4[nH]cc(-c5cnn(Cc6cccc(F)c6)c5)c4c3)cn2)CC1 [Example 157, Cyclopropyl(4-(5-(3-(1-(3-fluorobenzyl)-1H-pyrazol-4-yl)-1H-pyrrolo[2,3-b]pyridin-5-yl)pyridin-2-yl)piperazin-1-yl)methanone] | < 50 | 77 | 93
C[C@H](O)CN1CCN(c2ccc(-c3cnc4[nH]cc(-c5cnn(Cc6ccccc6)c5)c4c3)cn2)CC1 [Example 148, (S)-1-(4-(5-(3-(1-benzyl-1H-pyrazol-4-yl)-1H-pyrrolo[2,3-b]pyridin-5-yl)pyridin-2-yl)piperazin-1-yl)propan-2-ol] | < 50 | 94 | 100
Fc1cccc(Cn2cc(-c3c[nH]c4ncc(-c5cccc(N6CCNCC6)c5)cc34)cn2)c1 [Example 33, 3-(1-(3-fluorobenzyl)-1H-pyrazol-4-yl)-5-(3-(piperazin-1-yl)phenyl)-1H-pyrrolo[2,3-b]pyridine hydrochloride] | < 50 | 97 | 100
CC(C)(C)OC(=O)N1CCN(c2cccc(-c3cnc4[nH]cc(-c5cnn(Cc6cc(F)ccc6F)c5)c4c3)c2)CC1 [Example 31, tert-butyl 4-(3-(3-(1-(2,5-difluorobenzyl)-1 h-pyrazol-4-yl)-1 h-pyrrolo[2,3-b]pyridin-5-yl)phenyl)piperazine-1-carboxylate] | > 250 |  | 55
Cc1nn(Cc2cccc(F)c2)c(C)c1-c1c[nH]c2ncc(-c3ccc(N4CCN(C[C@H](C)O)CC4)cc3)cc12 [Example 123, (2S)-1-(4-(4-(3-(1-(3-fluorobenzyl)-3,5-dimethyl-1H-pyrazol-4-yl)-1H-pyrrolo[2,3-b]pyridin-5-yl)phenyl)piperazin-1-yl)propan-2-ol] | < 50 | 92 | 96
COc1cccc(Cn2nc(C)c(-c3c[nH]c4ncc(-c5ccc(N6CCNCC6)cc5)cc34)c2C)c1 [Example 46, 3-(1-(3-methoxybenzyl)-3,5-dimethyl-1H-pyrazol-4-yl)-5-(4-(piperazin-1-yl)phenyl)-1H-pyrrolo[2,3-b]pyridine hydrochloride] | < 50 | 80 | 98
